From the NIST ThermoML archive (doi:10.1016/j.jct.2016.09.041)

Test: molar heat capacity at constant pressure
Conditions: 101.33 kPa, Crystal 1, Small (less than 1 g) adiabatic calorimetry

N[C@@H](Cc1c[nH]c2ccccc12)C(=O)O [L-tryptophan]
Conditions	molar heat capacity at constant pressure [J/K/mol]
124.29 K	103.18
125.09 K	103.85
125.89 K	104.51
126.7 K	105.01
127.5 K	105.51
128.3 K	106.18
129.1 K	106.67
129.91 K	107.26
130 K	107.26
130.71 K	107.84
131.51 K	108.34
132.31 K	108.75
133.12 K	109.25
133.92 K	109.67
134.72 K	110.5
135.52 K	111.08
136.33 K	111.66
137.13 K	112.16
137.93 K	112.74
138.74 K	113.33
139.54 K	113.83
140 K	114.16
140.34 K	114.32
141.14 K	114.74
141.95 K	115.49
142.75 K	116.07
143.55 K	116.57
144.35 K	117.23
145.16 K	117.65
145.96 K	118.31
146.76 K	118.73
147.56 K	119.31
148.37 K	119.81
149.17 K	120.64
149.97 K	121.14
150 K	121.06
150.77 K	121.56
151.57 K	122.22
152.38 K	122.97
153.18 K	123.22
153.98 K	123.64
154.78 K	124.55
155.58 K	124.8
156.38 K	125.55
157.18 K	126.13
157.98 K	126.46
158.79 K	127.46
159.59 K	127.96
160 K	128.04
160.39 K	128.13
161.19 K	128.96
161.99 K	129.62
162.79 K	130.2
163.59 K	130.79
164.39 K	131.29
165.19 K	131.7
166 K	131.95
166.8 K	132.7
167.6 K	133.45
168.39 K	134.03
169.19 K	134.61
169.99 K	135.19
170 K	135.03
170.79 K	135.61
171.59 K	136.19
172.39 K	136.52
173.19 K	137.11
173.99 K	137.6
174.79 K	138.1
175.59 K	138.77
176.39 K	139.18
177.19 K	140.1
177.99 K	140.51
178.79 K	141.01
179.59 K	141.6
180 K	141.93
180.38 K	142.09
181.18 K	142.68
181.97 K	143.34
182.76 K	143.84
183.57 K	144.59
184.36 K	144.92
185.16 K	145.59
185.96 K	146.17
186.75 K	146.67
187.55 K	147.25
188.34 K	147.67
189.14 K	148.5
189.93 K	149.16
190 K	148.91
190.73 K	149.58
191.53 K	149.91
192.32 K	150.49
193.12 K	151.07
193.9 K	151.91
194.7 K	152.4
195.49 K	152.82
196.29 K	153.24
197.08 K	153.82
197.87 K	154.4
198.67 K	155.23
199.46 K	155.65
200 K	156.06
200.26 K	156.31
201.25 K	156.89
202.45 K	157.81
203.66 K	158.64
204.86 K	159.55
206.06 K	160.3
207.27 K	161.3
208.48 K	162.22
209.68 K	162.96
210 K	163.21
210.89 K	163.88
212.09 K	164.54
213.3 K	165.54
214.51 K	166.21
215.73 K	166.95
216.93 K	167.95
218.14 K	169.28
219.36 K	170.2
220 K	170.28
220.57 K	170.86
221.79 K	171.61
223 K	172.77
224.22 K	173.69
225.43 K	174.11
226.65 K	175.1
227.87 K	176.35
229.09 K	177.18
230 K	177.76
230.31 K	178.01
231.54 K	179.09
232.76 K	179.76
233.98 K	180.59
235.21 K	181.67
236.43 K	182.75
237.66 K	183.67
238.88 K	184.5
240 K	185.25
240.11 K	185.41
241.34 K	186.24
242.57 K	187.33
243.8 K	188.07
245.03 K	188.74
246.26 K	190.07
247.5 K	190.82
248.75 K	191.98
249.99 K	192.56
250 K	192.81
251.23 K	193.73
252.46 K	194.81
253.7 K	195.72
254.94 K	196.72
256.18 K	197.63
257.43 K	198.47
258.67 K	199.3
259.92 K	200.3
260 K	200.38
261.16 K	201.13
262.41 K	202.04
263.66 K	203.04
264.91 K	204.12
266.17 K	204.87
267.42 K	206.03
268.69 K	207.2
269.95 K	208.19
270 K	208.03
271.21 K	208.86
272.47 K	210.02
273.73 K	210.77
274.99 K	211.6
276.25 K	212.93
277.51 K	213.85
278.78 K	214.51
280 K	215.76
280.05 K	215.84
281.32 K	216.76
282.59 K	217.42
283.86 K	218.5
285.13 K	219.83
286.41 K	220.17
287.69 K	221.58
288.96 K	222.74
290 K	223.83
290.24 K	223.49
291.52 K	224.57
292.8 K	225.16
294.08 K	226.4
295.36 K	227.48
296.65 K	227.73
297.93 K	228.9
298.15 K	228.98
299.23 K	229.65
300 K	230.31
300.76 K	230.56
302.42 K	231.39
304.07 K	232.81
305.72 K	234.22
307.35 K	235.3
308.99 K	236.3
310 K	237.05
310.61 K	237.38
312.22 K	239.21
313.83 K	240.04
315.43 K	240.54
317.02 K	241.62
318.6 K	242.87
320 K	243.61
320.17 K	243.78
321.71 K	244.28
323.27 K	246.27
324.81 K	246.94
326.3 K	247.85
327.82 K	248.94
329.34 K	250.02
330 K	250.52
330.82 K	251.18
332.31 K	252.43
333.79 K	253.51
335.26 K	254.09
336.72 K	255.17
338.17 K	256.67
339.59 K	256.42
340 K	258
341.01 K	258.66
342.42 K	259.91
343.82 K	260.91
345.21 K	262.16
346.6 K	263.24
347.91 K	263.9
349.09 K	265.81
350 K	265.98
350.43 K	266.89
351.76 K	268.06
353.08 K	269.06
354.39 K	269.47
355.67 K	270.14
356.94 K	271.3
358.2 K	272.71
359.46 K	273.55
360 K	273.71
360.69 K	274.04
361.93 K	275.13
363.07 K	275.87
364.26 K	276.54
365.45 K	277.29
366.62 K	277.95
367.71 K	277.87
368.55 K	278.87
369.68 K	279.87
370 K	279.62
370.81 K	278.62
371.9 K	280.61
372.99 K	281.53
